Publication PMC10794137, “A new antibiotic traps lipopolysaccharide in its intermembrane transporter” (Nature, 2024)
Values joined by “and” are separate entries in the source; they are usually repeats but may differ in a detail not shown here. Identical values can stand only once.

How the values were obtained:
[1] = tested on: Acinetobacter baylyi ΔLpxC; assay type: cell-based; conditions: A. baylyi ΔLpxC (lacking LPS)
Experimental: Culture, genetic manipulation and MIC measurements of A. baylyi ADP1 were conducted according to previously reported procedures[46],[51]. Point mutants were constructed in a two-step procedure following ref. [52] with the introduction and excision of the integration cassette at codon 66 of pepA, wherein the excising fragment of otherwise wild-type chromosomal DNA sequence from codon 406 of pepA to codon 193 of lptG bore the desired mutation and the resulting clones were screened by amplicon sequencing from codon 81 of HolC to codon 501 of GpmI, whereas lpxM deletion was achieved following the same procedure except that the integration cassette insertion and excision removed codons 79–279 of lpxM to avoid interference with neighbouring and overlapping genes that a larger deletion may risk and replaced codon 78 with an ochre stop codon to prevent a readthrough resulting in an aberrant fusion, with the excising fragment sequence spanning from codon 211 of sppA to codon 497 of ComA and verified by amplicon sequencing from codon 94 of MhpC to codon 327 of ComA as well as by absence of a PCR product corresponding to a region spanning codons 79 to 279 of lpxM to check for duplications. A deletion of the lon protease was made in the same manner to produce the stain used for expression and purification of LptB2FG to mimic the BL21 strain of E. coli used in the rest of purifications, for which the region encompassing 72 base pairs (bp) upstream of the lon start codon and 1 bp downstream of the lon stop codon was excised after being replaced with the same integration cassette, yielding a markerless deletion, with the excising fragment sequence spanning from codon 491 of ArnT to codon 40 of 45_DOPA_Dioxygenase and verified by amplicon sequencing spanning from codon 322 of ArnT to codon 221 of 45_DOPA_Dioxygenase as well as by absence of a PCR product corresponding to a region spanning from codons 328 to 768 of lon to check for duplications. Following amplicon confirmation, three validated isolates of each constructed mutant were tested for susceptibility to a panel of antibiotics with […] known mechanisms of action as a further validation step to ensure congruence of phenotypes across replicates, which was confirmed in all cases and one of the validated replicates was later used for MIC measurements reported here.
MIC determinations were performed by broth microdilution in line with CLSI guidelines (CLSI M07-A11 2018). Bacterial inocula were prepared by diluting overnight liquid cultures in LB. Antibacterial panels containing antibacterial solutions were inoculated with an appropriate volume of inoculum to give a final inoculum of about 5 × 10^5 c.f.u. ml^−1 and desired test concentrations of antibacterial agents in standard 96-well plates with 0.1 ml of culture per well. The test plates were incubated for 20–24 h and optical density (OD600) was recorded using a plate reader. MIC values corresponded to the lowest compound concentration inhibiting bacterial growth beyond which OD ceased to decrease.

LptB2F^E249KGC = test: LPS release assay, LptB2F(E249K)GC; assay type: biochemical, Acinetobacter baylyi; conditions: LptF E249K complex, E. coli LPS
Experimental: Proteoliposomes were prepared as described previously. Aqueous E. coli polar lipid extract (Avanti Polar Lipids) (30 mg ml^−1) and aqueous LPS from E. coli EH100 (Ra mutant; Sigma) (2 mg ml^−1) were sonicated briefly for homogenization. For experiments testing the effect of LPS structure, we used LPS isolated from either GKM374 (BL21DE3 eptA::catR arnA::kanR eptC::gentR) or TXM418 (BL21DE3 eptA::catR arnA::FRT eptB::gentR lpxM::kanR) as described previously. A mixture of 20 mM Tris-HCl (pH 8.0), 150 mM NaCl, 7.5 mg ml^−1 of E. coli polar lipids, 0.5 mg ml^−1 of LPS and 0.25% DDM was prepared and kept on ice for 10 min. Purified LptB2FGC or LptB2FG was added to a final concentration of 0.86 μM and the mixture was left on ice for 20 min. The mixture was diluted 100-fold with cold 20 mM Tris-HCl (pH 8.0) and 150 mM NaCl and kept on ice for 20 min. The proteoliposomes were pelleted (300,000g, 2 h, 4 °C), resuspended in 20 mM Tris-HCl (pH 8.0) and 150 mM NaCl, diluted 100× and centrifuged (300,000g, 2 h, 4 °C). The pellets were resuspended in a mixture of 20 mM Tris-HCl (pH 8.0), 150 mM NaCl and 10% glycerol (250 μl per 100 μl of the original predilution solution), homogenized by sonication, flash frozen and stored at −80 °C until use.
The amounts of release of LPS from proteoliposomes to LptA were measured as previously described. […]

For `CN1C(=O)[C@H](CCCCN)NC(=O)[C@H](CCCN)NCc2cccnc2Sc2c(Cl)ccc(-c3ccc(N)nc3)c2CNC(=O)[C@@H]1Cc1c[nH]c2ccccc12` [Compound 1], the MIC [1] was > 50 µM and > 40 µg/mL and the “Inhibition of LPS release to LptA” value (LptB2F^E249KGC) was “did not block LPS release”.
